Test results as given in patent publication US10035806B2, “Derivatized corroles and metallocorroles and their use as imaging and therapeutic agents” (CALIFORNIA INSTITUTE OF TECHNOLOGY, priority 2015, dated 2018).
Values joined by “and” are separate entries in the source; they are usually repeats but may differ in a detail not shown here. Equal values may be shown once.

Experiments:
SK-MEL-28 = experiment: MTS assay (cytotoxicity); format: cell-based, human; settings: SK-MEL-28 (melanoma), 72 h exposure in the dark, mean of three experiments
Text: (§1) Reagents were obtained from the indicated suppliers: HBSS without phenol red and trypsin-EDTA (0.25%), Invitrogen/Gibco; PBS, Mediatech; 4′,6-diamidino-2-phenylindole dihydrochloride (DAPI) and DMSO, Sigma-Aldrich; paraformaldehyde, Electron Microscopy Sciences; WGA, Alexa Fluor 488 conjugate, Invitrogen/Molecular Probes; and ProLong Gold Antifade Mountant with DAPI, Life Technologies. Human Cancer Cell Lines. Four cell lines from the NCI60 cell panel (Shoemaker RH (2006) The NCI60 human tumour cell line anticancer drug screen. Nat Rev Cancer 6(10):813-823) representing four distinct tumor types were used in this study: DU-145, prostate; MDA-MB-231, breast; SK-MEL-28, melanoma; and OVCAR-3, ovarian. Cells were grown in RPMI 1640 cell culture medium (Mediatech) containing 2 mM L-glutamine, supplemented with 10% FBS (Omega Scientific), and maintained at 37° C. under 5% CO2 in a humidified incubator.
(§2) At the time of drug treatment, stock solutions of 1-4 were diluted to 10-fold the desired final test concentrations with RPMI medium 1640. Aliquots of […] of these diluted solutions were added to the appropriate microtiter wells containing 90 μL of medium, resulting in the required final drug concentrations (eight concentrations per compound, ranging from 0.3 to 600 μM). The final concentration of DMSO in test culture was <1%. […] Following 72 h of exposure at 37° C., cell viability was determined using the MTS assay (CellTiter 96 Aqueous One Cell Proliferation Assay; Promega) according to the manufacturer's instructions. Absorbances were measured using a microplate reader (Synergy 4; Biotek Instruments) at 490 nm. Experiments were performed in triplicate and each dose-response curve represents the mean of three or more independent experiments. Spectrophotometric data were analyzed by sigmoid dose-response, nonlinear regression analysis; the IC50, Emax values, and associated SE were calculated using GraphPad Prism 6 (GraphPad Software).
(§3) The effects of bis-sulfonate, carboxylate, and aminocaproate ring substituents on gallium corrole cytotoxicities were examined using four human cancer cell lines, representing tumors of different origin selected based on previously described sensitivities.

OVCAR-3 = experiment: MTS assay (cytotoxicity); format: cell-based, human; settings: OVCAR-3 (ovarian), 72 h exposure in the dark, mean of three experiments
Text: as §1, §2, §3

DU-145 = experiment: MTS assay (cytotoxicity); format: cell-based, human; settings: for IC50: DU-145 (prostate), 72 h exposure in the dark, MTS assay, mean of three experiments
Text: as §1, §2, §3

MDA-MB-231 = experiment: MTS assay (cytotoxicity); format: cell-based, human; settings: MDA-MB-231 (breast), 72 h exposure in the dark, mean of three experiments
Text: as §1, §2, §3

[1] = tested on: DU-145, SK-MEL-28, MDA-MB-231, OVCAR-3; experiment: Uptake of gallium corroles (ImageXpress confocal), cell lines taken together; format: cell-based, human; settings: 30 μM
Protocol: The intracellular uptake of gallium corroles was quantified using the ImageXpressultra laser point-scanning confocal microscope (Molecular Devices). The fluorescence image acquisition settings were as previously reported (Lim P, et al. (2012), Chem Res Toxicol 25(2):400-409.). Cells (DU-145, SK-MEL-28, MDA-MB-231, and OVCAR-3) were seeded in 96-well dishes (8×10^3 cells per well in 0.1 mL) and allowed to attach overnight. Complex 1, 2, 3, or 4 was added directly to cell media at 30 μM final concentration or media only control, and incubated for 0.25, 1, 3, or 24 h at 37° C. in the dark under a 5% CO2 atmosphere. Cells were fixed and labeled in situ with WGA-Alexa Fluor 488 conjugate and DAPI to allow for the identification of cell boundary and nucleus, respectively. The quantification of blue (DAPI) fluorescence signals in each sample yielded the total number of cells in that population. Corresponding determination of red (corrole) fluorescence within each cell, corrected for background fluorescence from untreated cells, provided the number of cells containing corroles. For each corrole concentration at various time points, fluorescence data were obtained for 1,000-22,000 individual cells. Data acquisitions and analyses were performed as described (Lim P, et al. (2012), Chem Res Toxicol 25(2):400-409). The percentage of corrole-positive cells and the median fluorescence intensity (median RFU) for each treatment were plotted in a three-axis graph using Microsoft Office Excel 2007 (Microsoft Corporation).
To quantify the kinetics of intracellular uptake and accumulation of each derivative, ImageXpressultra, a laser point-scanning confocal microscope, was used for analyses. […] Cells were incubated at 37° C. in the dark for 0.25, 1, 3, or 24 h. […] Within 15 min, Complex 4 fluorescence was observable in ˜80% of ovarian cancer cells, 97% of breast cancer cells, and >99% of prostate cancer and melanoma cells, whereas up to 3 and 24 h were required to label >80% of cells from all four cancer lines with Complexes 3 and 2, respectively. […]

human cancer cells = settings: previous work, cited from earlier work
murine model animals = settings: previous work; cited from earlier work
MDA-MB-231 cells = settings: literature values, read-out: IC50 reported for cisplatin; cited from earlier work

| Structure (SMILES) | IC50 (SK-MEL-28) | IC50 (OVCAR-3) | IC50 (DU-145) | IC50 (MDA-MB-231) | effect of pyridinium substitution (in place of bis-sulfonic acids) on uptake, activity, toxicity (human cancer cells) | further results |
| --- | --- | --- | --- | --- | --- | --- |
| Fc1c(F)c(F)c(C2=C3C=CC4=[N+]3[Ga-]35[n]6c2ccc6C(c2c(F)c(F)c(F)c(F)c2F)=c2ccc([n]23)=C(c2c(F)c(F)c(F)c(F)c2F)c2ccc4[n]25)c(F)c1F (stereo not shown) [Complex 1, gallium(III) tris(pentafluorophenyl)corrole] | 61.3 µM | 58.1 µM | 135 µM | 101 µM | – | time required for significant uptake (≥80% cells) ([1]; melanoma, ovarian, and breast cancer cell lines): 24 h |
| O=S(=O)(O)C1=CC2=C(c3c(F)c(F)c(F)c(F)c3F)c3ccc4[n]3[Ga-]35[n]6c(cc(S(=O)(=O)O)c6C(c6c(F)c(F)c(F)c(F)c6F)=c6ccc([n]63)=C4c3c(F)c(F)c(F)c(F)c3F)C1=[N+]25 (stereo not shown) [Complex 2] | 131 µM | 274 µM | 159 µM | 129 µM | – | antitumor activity in vitro (human cancer cells; human cancer cells): potent antitumor activity; mechanism of cytotoxicity: cell cycle effect (human cancer cells; numerous cancer cell lines in vitro): induce cell cycle arrest at late M phase; IC50 (DU-145; listed as 2): 159 µM; antitumor activity in vivo (murine model animals): potent antitumor activity; time required to label >80% of cells from all four cancer lines ([1]; 37° C., dark): ≤ 24 h |
| O=C(O)C1=CC2=[N+]3C1=C(c1c(F)c(F)c(F)c(F)c1F)c1ccc4[n]1[Ga-]31[n]3c(ccc32)C(c2c(F)c(F)c(F)c(F)c2F)=c2ccc([n]21)=C4c1c(F)c(F)c(F)c(F)c1F (stereo not shown) [Complex 4] | 4.8 µM | 11.1 µM | 12.9 µM | 15.3 µM | – | IC50 lower than bis-sulfonated Complex 2 (DU-145; DU-145, 72 h, MTS): −12 fold |
| COc1ccc(C2=c3ccc4[n]3[Mn-]35[n]6c(ccc62)C(c2cc[n+](C)cc2)=C2C=CC(=[N+]23)c2ccc([n]25)C=4c2cc[n+](C)cc2)cc1 (stereo not shown) [Complex 5] | – | – | – | – | improve uptake and activity | – |
| C[n+]1ccccc1C1=C2C=CC3=[N+]2[Mn-]24[n]5c1ccc5C(c1cccc[n+]1C)=c1ccc([n]12)=C(c1cccc[n+]1C)c1ccc3[n]14 (stereo not shown) [Complex 6] | – | – | – | – | completely ablated toxicity | – |
| N.N.[Cl][Pt][Cl] [cisplatin] | – | – | – | – | – | IC50 (MDA-MB-231 cells): 46.4 µM and 39 µM |
